Publication PMC3624797 (Journal of Medicinal Chemistry, 2013)

Experiments:
[1] = Metabolic stability in mouse liver microsomes; type: in vitro ADME; conditions: for metabolic stability (in words): incubated with mouse liver microsomes
Chemical stability = type: physicochemical
[2] = Tolerability observed in rat PK studies; type: in vivo; conditions: rats; for hemolysis: dosed iv, most likely arising from the vehicle; for signs of toxicity: orally or ip at doses up to ∼20 mg/kg
in vivo = conditions: male, Sprague Dawley, rat, plasma
Oral exposure in mice = type: in vivo, mouse; conditions: single oral dose 50 mg/kg, suspension in PEG400, after ∼5 h
[3] = Blood and plasma stability; type: in vitro ADME; conditions: rat blood and plasma, over 4 h at 37 °C
[4] = rat dosed intravenously
[5] = Metabolic stability in human liver microsomes; type: in vitro ADME
[6] = Metabolic stability in rat liver microsomes; type: in vitro ADME

CCOC(=O)C1=C(C)N/C(=C/c2ccn(-c3ccccc3C(F)(F)F)c2)C1=O [Compound 9a]
metabolic stability (in words) [1]: even lower metabolic stability

CCOC(=O)C1=C(C)N/C(=C/c2cc(CC)n(-c3ccccc3C(F)(F)F)c2CC)C1=O [Compound 9c, Ethyl (5E)-5-[[2,5-Diethyl-1-[2-(trifluoromethyl)phenyl]pyrrol-3-yl]methylene]-2-methyl-4-oxo-1H-pyrrole-3-carboxylate]
metabolic stability (in words) [1]: even lower metabolic stability

CC1=CC(=O)/C(=C\c2cc(C)n(-c3ccccc3C(F)(F)F)c2C)N1 [Compound 10d]
metabolic stability (in words) [1]: slightly more stable

CCOC(=O)C1=C(C)N/C(=C/c2ccn(-c3ccc(C(F)(F)F)cc3)c2)C1=O [Compound 9b]
metabolic stability (in words) [1]: even lower metabolic stability

CCOC(=O)C1=C(C)NC(Cc2cc(C)n(-c3ccccc3C(F)(F)F)c2C)C1=O (stereo not shown) [Compound 11b]
chemical stability (in words) (Chemical stability): less stable chemically

CCOC(=O)C1=C(C)N/C(=C/c2cc(C)n(-c3ccc(N4CCOCC4)cc3)c2C)C1=O [Compound 8u]
metabolic stability (in words) [1]: slightly more stable

CCOC(=O)C1=C(C)N/C(=C/c2cc(C)n(-c3ccccc3C(F)(F)F)c2C)C1=O [Compound 8a, Ethyl (5E)-5-[[2,5-dimethyl-1-[2-(trifluoromethyl)phenyl]pyrrol-3-yl]methylene]-2-methyl-4-oxo-1H-pyrrole-3-carboxylate]
hemolysis [2]: slight degree of hemolysis
signs of toxicity [2]: No sign of toxicity
chemical stability (in words) (Chemical stability): fairly resistant to chemical hydrolysis
half-life (in vivo): ≥ 8 h
plasma levels (Oral exposure in mice): < 10 nM
hydrolyzed to the acid 10c [3]: ~25%
glutathione conjugation adducts in urine [4]: no adducts resulting from conjugation with glutathione were detected
metabolites detected [5]: none

CCOC(=O)C1=C(C)N/C(=C/c2cc(C)n(-c3ccc(C(F)(F)F)cc3)c2C)C1=O [Compound 8b, Ethyl (5E)-5-[[2,5-Dimethyl-1-[4-(trifluoromethyl)phenyl]pyrrol-3-yl]methylene]-2-methyl-4-oxo-1H-pyrrole-3-carboxylate]
hemolysis [2]: slight degree of hemolysis
signs of toxicity [2]: No sign of toxicity
metabolites detected [6]: none
half-life (in vivo): ≥ 8 h
metabolites detected ([1]; mouse liver microsomes (Table 6)): none
half-life at 1 μM [5]: 0.583 h
metabolites detected [5]: none

CCOC(=O)C1=C(C)N/C(=C/c2cc(C)n(-c3ccc(CN(C)C)cc3)c2C)C1=O [Compound 8aa]
metabolic stability (in words) [1]: slightly more stable
